Target: T1, human OX2 receptor (Homo sapiens, UniProt O43614)
T1 construct: expressed in transfected cells
T1 sequence (O43614 1-444): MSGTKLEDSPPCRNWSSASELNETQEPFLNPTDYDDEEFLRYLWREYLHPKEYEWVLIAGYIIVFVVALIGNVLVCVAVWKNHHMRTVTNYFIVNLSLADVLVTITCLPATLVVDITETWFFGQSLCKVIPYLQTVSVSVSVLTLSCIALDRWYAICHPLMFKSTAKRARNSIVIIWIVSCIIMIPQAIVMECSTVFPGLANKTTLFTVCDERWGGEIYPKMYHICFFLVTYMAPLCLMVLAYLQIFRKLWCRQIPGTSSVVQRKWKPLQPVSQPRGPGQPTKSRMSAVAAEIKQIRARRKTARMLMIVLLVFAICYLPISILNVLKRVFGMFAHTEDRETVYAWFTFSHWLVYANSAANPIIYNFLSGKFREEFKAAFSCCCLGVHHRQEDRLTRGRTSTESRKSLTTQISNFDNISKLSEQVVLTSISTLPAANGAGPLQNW
Test: Measurement of orexin type 2 receptor agonist activity (calcium fluorescence, Fluo-4 AM, FDSS)
Assay type: cell-based
Conditions: compound at 3 μM; CHO cells forcibly expressing human OX2 receptor; DMSO = 0%, 10 nM orexin A (human) = 100%
Experimental: In order to obtain cell clones that stably express human orexin type 2 receptor, human orexin type 2 (residues 1-444, NCBI Reference Sequence: AK314279) was constructed in a pcDNA3.1 (+) vector (Invitrogen) to express in mammalian cells. This plasmid DNA was transfected into CHO-K1 cells by electroporation, and stable clones were obtained by limiting dilution using resistance to G418 as a selection marker.
CHO cells in which human OX2 receptor was forcibly expressed were seeded at 10,000 cells/well into a 384-well black transparent bottom plate (BD falcon), and were incubated at 37° C., 5% CO2 for 1 day after incubation at room temperature for 30 minutes. After removing the cell plate medium, assay buffer containing calcium indicator A (HBSS (Thermo Fisher Scientific), 20 mM HEPES (Thermo Fisher Scientific), 0.1% BSA (Sigma-Aldrich), 2.5 μg/mL Fluo-4 AM (Dojin Kagaku), 0.08% Pluronic F127 (Dojin Kagaku), 1.25 mM probenecid (Dojin Kagaku)) was added at 30 μL/well. After incubation in a 5% CO2 incubator at 37° C. for 30 minutes, it was incubated at room temperature for another 30 minutes. Add 10 μL/well of the test compound diluted with assay buffer B (HBSS, 20 mM HEPES, 0.1% BSA), and use FDSS uCELL (Hamamatsu Photonics) to measure the fluorescence value every 1 second for 1 minute, and then every 2 seconds for […]. It was measured for 1 minute and 40 seconds. The amount of fluorescence value when DMSO is added instead of the test compound is defined as 0%, and the amount of fluorescence value when orexin A (human) (Peptide Institute) with a final concentration of 10 nM is added is defined as 100%. The activity (%) of the test compound was calculated.

SMILES	OX2R agonist activity (3 μM, %) [%]
Cc1cnc([C@@H]2CC(N3C[C@@H](NS(=O)(=O)C4CC4)C(F)(F)C3)=NO2)c(-c2c(F)cccc2F)c1 [Example 33, N-[(3R)-1-{(5S)-5-[3-(2,6-difluorophenyl)-5-methylpyridin-2-yl]-4,5-dihydro-1,2-oxazol-3-yl}-4,4-difluoropyrrolidin-3-yl]cyclopropanesulfonamide]	102
CCS(=O)(=O)N[C@@H]1CN(C2=NOC(c3ncc(F)cc3-c3c(F)cc(F)cc3F)C2)CC1(F)F (stereo partly drawn) [Example 34, N-[(3R)-4,4-difluoro-1-{5-[5-fluoro-3-(2,4,6-trifluorophenyl)pyridin-2-yl]-4,5-dihydro-1,2-oxazol-3-yl}pyrrolidin-3-yl]ethanesulfonamide]	105
CN(C)S(=O)(=O)N[C@H]1CCN(C2=NOC(c3ncccc3-c3c(F)cc(F)cc3F)C2)C1 (stereo partly drawn) [Example 35, N,N-dimethyl-N′-[(3S)-1-{5-[3-(2,4,6-trifluorophenyl)pyridin-2-yl]-4,5-dihydro-1,2-oxazol-3-yl}pyrrolidin-3-yl]sulfuric diamide]	92
O=S(=O)(CF)N[C@H]1CCN(C2=NOC(c3ncc(F)cc3-c3c(F)cc(F)cc3F)C2)C1 (stereo partly drawn) [Example 36, 1-fluoro-N-[(3S)-1-{5-[5-fluoro-3-(2,4,6-trifluorophenyl)pyridin-2-yl]-4,5-dihydro-1,2-oxazol-3-yl}pyrrolidin-3-yl]methanesulfonamide]	103
Cc1cnc([C@@H]2CC(N3CC[C@H](NS(=O)(=O)C(F)F)C3)=NO2)c(-c2c(F)cccc2F)c1 [Example 37, N-[(3S)-1-{(5S)-5-[3-(2,6-difluorophenyl)-5-methylpyridin-2-yl]-4,5-dihydro-1,2-oxazol-3-yl}pyrrolidin-3-yl]-1,1-difluoromethanesulfonamide]	103
Cc1cnc([C@@H]2CC(N3CC[C@H](NS(=O)(=O)CF)C3)=NO2)c(-c2c(F)cccc2F)c1 [Example 38, N-[(3S)-1-{(5S)-5-[3-(2,6-difluorophenyl)-5-methylpyridin-2-yl]-4,5-dihydro-1,2-oxazol-3-yl}pyrrolidin-3-yl]-1-fluoromethanesulfonamide]	104
CS(=O)(=O)N[C@@H]1CN(C2=NOC(c3ncc(Cl)cc3-c3c(F)cc(F)cc3F)C2)CC1(F)F (stereo partly drawn) [Example 39, N-[(3R)-1-{5-[5-chloro-3-(2,4,6-trifluorophenyl)pyridin-2-yl]-4,5-dihydro-1,2-oxazol-3-yl}-4,4-difluoropyrrolidin-3-yl]methanesulfonamide]	97
CS(=O)(=O)N[C@@H]1CN(C2=NOC(c3ncc(Br)cc3-c3c(F)cc(F)cc3F)C2)CC1(F)F (stereo partly drawn) [Example 40, N-[(3R)-1-{5-[5-bromo-3-(2,4,6-trifluorophenyl)pyridin-2-yl]-4,5-dihydro-1,2-oxazol-3-yl}-4,4-difluoropyrrolidin-3-yl]methanesulfonamide]	103
CS(=O)(=O)N[C@@H]1CN(C2=NOC(c3ncc(C(F)F)cc3-c3c(F)cc(F)cc3F)C2)CC1(F)F (stereo partly drawn) [Example 41, N-[(3R)-1-{5-[5-(difluoromethyl)-3-(2,4,6-trifluorophenyl)pyridin-2-yl]-4,5-dihydro-1,2-oxazol-3-yl}-4,4-difluoropyrrolidin-3-yl]methanesulfonamide]	107
CCS(=O)(=O)N[C@@H]1CN(C2=NOC(c3ncc(Cl)cc3-c3c(F)cc(F)cc3F)C2)CC1(F)F (stereo partly drawn) [Example 42, N-[(3R)-1-{5-[5-chloro-3-(2,4,6-trifluorophenyl)pyridin-2-yl]-4,5-dihydro-1,2-oxazol-3-yl}-4,4-difluoropyrrolidin-3-yl]ethanesulfonamide]	100
CCS(=O)(=O)N[C@@H]1CN(C2=NO[C@H](c3ncc(Br)cc3-c3c(F)cc(F)cc3F)C2)CC1(F)F [Example 43, N-[(3R)-1-{5-[5-bromo-3-(2,4,6-trifluorophenyl)pyridin-2-yl]-4,5-dihydro-1,2-oxazol-3-yl}-4,4-difluoropyrrolidin-3-yl]ethanesulfonamide]	103
Cc1cnc([C@@H]2CC(N3C[C@@H](F)[C@H](NS(C)(=O)=O)C3)=NO2)c(-c2c(F)cccc2F)c1 [Example 44, N-[(3R,4R)-1-{(5S)-5-[3-(2,6-difluorophenyl)-5-methylpyridin-2-yl]-4,5-dihydro-1,2-oxazol-3-yl}-4-fluoropyrrolidin-3-yl]methanesulfonamide]	95
Cc1cnc([C@@H]2CC(N3CC[C@H](NS(C)(=O)=O)C3)=NO2)c(-c2c(F)cc(F)cc2F)c1 [Example 45, N-[(3S)-1-{(5S)-5-[5-methyl-3-(2,4,6-trifluorophenyl)pyridin-2-yl]-4,5-dihydro-1,2-oxazol-3-yl}pyrrolidin-3-yl]methanesulfonamide]	101
Cc1cnc([C@@H]2CC(N3CC[C@H](NS(=O)(=O)C4(F)CC4)C3)=NO2)c(-c2c(F)cc(F)cc2F)c1 [Example 46, 1-fluoro-N-[(3S)-1-{(5S)-5-[5-methyl-3-(2,4,6-trifluorophenyl)pyridin-2-yl]-4,5-dihydro-1,2-oxazol-3-yl}pyrrolidin-3-yl]cyclopropane-1-sulfonamide]	99
CCS(=O)(=O)N[C@@H]1CN(C2=NO[C@H](c3ncc(C)cc3-c3c(F)cc(F)cc3F)C2)CC1(F)F [Example 47, N-[(3R)-4,4-difluoro-1-{(5S)-5-[5-methyl-3-(2,4,6-trifluorophenyl)pyridin-2-yl]-4,5-dihydro-1,2-oxazol-3-yl}pyrrolidin-3-yl]ethanesulfonamide]	93
Cc1cnc([C@@H]2CC(N3C[C@@H](F)[C@H](NS(C)(=O)=O)C3)=NO2)c(-c2c(F)cc(F)cc2F)c1 [Example 48, N-[(3R,4R)-4-fluoro-1-{(5S)-5-[5-methyl-3-(2,4,6-trifluorophenyl)pyridin-2-yl]-4,5-dihydro-1,2-oxazol-3-yl}pyrrolidin-3-yl]methanesulfonamide]	94
CS(=O)(=O)N[C@@H]1CN(C2=NOC(c3ncc(Cl)cc3-c3c(F)cccc3F)C2)CC1(F)F (stereo partly drawn) [Example 49, N-[(3R)-1-{5-[5-chloro-3-(2,6-difluorophenyl)pyridin-2-yl]-4,5-dihydro-1,2-oxazol-3-yl}-4,4-difluoropyrrolidin-3-yl]methanesulfonamide]	95
Cc1ccc([C@@H]2CC(N3CC[C@H](NS(C)(=O)=O)C3)=NO2)c(-c2ncc(F)cc2F)c1 [Example 50, N-[(3S)-1-{5-[2-(3,5-difluoropyridin-2-yl)-4-methylphenyl]-4,5-dihydro-1,2-oxazol-3-yl}pyrrolidin-3-yl]methanesulfonamide]	99
CS(=O)(=O)N[C@@H]1CN(C2=NOC(c3ncc(Br)cc3-c3c(F)cccc3F)C2)CC1(F)F (stereo partly drawn) [Example 52, N-[(3R)-1-{5-[5-bromo-3-(2,6-difluorophenyl)pyridin-2-yl]-4,5-dihydro-1,2-oxazol-3-yl}-4,4-difluoropyrrolidin-3-yl]methanesulfonamide]	93
Cc1cnc([C@@H]2CC(N3C[C@@H](NS(C)(=O)=O)C(F)(F)C3)=NO2)c(-c2c(F)cc(Cl)cc2F)c1 [Example 53, N-[(3R)-1-{5-[3-(4-chloro-2,6-difluorophenyl)-5-methylpyridin-2-yl]-4,5-dihydro-1,2-oxazol-3-yl}-4,4-difluoropyrrolidin-3-yl]methanesulfonamide]	98
Cc1cnc([C@@H]2CC(N3C[C@@H](NS(C)(=O)=O)C(F)(F)C3)=NO2)c(-c2c(F)ccc(F)c2F)c1 [Example 54, N-[(3R)-4,4-difluoro-1-{5-[5-methyl-3-(2,3,6-trifluorophenyl)pyridin-2-yl]-4,5-dihydro-1,2-oxazol-3-yl}pyrrolidin-3-yl]methanesulfonamide]	92
Cc1cnc([C@@H]2CC(N3C[C@@H](NS(=O)(=O)C4CC4)C(F)(F)C3)=NO2)c(-c2c(F)cc(F)cc2F)c1 [Example 55, N-[(3R)-4,4-difluoro-1-{(5S)-5-[5-methyl-3-(2,4,6-trifluorophenyl)pyridin-2-yl]-4,5-dihydro-1,2-oxazol-3-yl}pyrrolidin-3-yl]cyclopropanesulfonamide]	104

From patent US20240217957A1, “HETEROCYCLIC COMPOUND AND USE THEREOF” (TAKEDA PHARMACEUTICAL COMPANY LIMITED, priority 2022, published 2024)
